{"source": "patent US10183950B2", "about": "“Thienopyrimidine inhibitors of atypical protein kinase C” (Cancer Research Technology Limited, priority 2011, dated 2019)", "biological_target": "T1, full-length human PKCι (Homo sapiens, UniProt P41743)", "T1 construct": "Recombinant, full-length human PKCι expressed in Sf21 insect cells is also commercially available; purchased; host or cells: Sf21 insect cells", "T1 sequence (P41743 1-596)": "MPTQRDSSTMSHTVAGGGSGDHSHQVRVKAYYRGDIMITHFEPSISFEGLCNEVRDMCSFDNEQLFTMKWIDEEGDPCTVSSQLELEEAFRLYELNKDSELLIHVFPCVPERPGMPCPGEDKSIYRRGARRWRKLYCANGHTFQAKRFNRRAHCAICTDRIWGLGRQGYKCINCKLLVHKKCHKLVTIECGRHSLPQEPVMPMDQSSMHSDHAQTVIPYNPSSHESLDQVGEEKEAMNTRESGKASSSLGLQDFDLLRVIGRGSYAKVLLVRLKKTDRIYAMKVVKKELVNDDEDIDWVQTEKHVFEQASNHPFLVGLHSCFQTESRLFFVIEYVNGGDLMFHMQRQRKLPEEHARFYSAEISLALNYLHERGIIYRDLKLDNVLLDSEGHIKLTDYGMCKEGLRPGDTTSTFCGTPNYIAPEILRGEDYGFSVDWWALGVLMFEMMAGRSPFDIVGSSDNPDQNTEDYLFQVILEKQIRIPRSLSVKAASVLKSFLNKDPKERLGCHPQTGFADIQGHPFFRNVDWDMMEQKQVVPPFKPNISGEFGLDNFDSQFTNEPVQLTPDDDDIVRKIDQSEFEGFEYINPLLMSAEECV", "experiment": "PKCι IC50 IMAP fluorescence polarisation assay, full-length enzyme", "format": "biochemical", "conditions": "full length PKCi at 15 μM ATP", "key": {"[1]": {"conditions": "read-out: IC50 in IMAP assay against full length PKCi"}, "[2]": {"conditions": "read-out: IC50 in IMAP assay against full length PKCi (Activity)"}}, "note": "Read-outs that look alike come from different tables or passages of the source."}
{"smiles": "NC(CNc1nc(-c2ccncc2F)nc2c(-c3cccnc3)csc12)Cc1ccccc1", "note": "(stereo in doubt) [compound 423, (R)-N*1*-[2-(3-Fluoro-pyridin-4-yl)-7-pyridin-3-yl-thieno[3,2-d]pyrimidin-4-yl]-3-phenyl-propane-1,2-diamine]", "values": [{"measurement": "IC50", "setting": "[1]", "value": "1000 to 10000", "unit": "nM"}]}
{"smiles": "Clc1cnccc1-c1nc(N[C@@H]2CCNC2)c2sccc2n1", "note": "[compound 322, [2-(3-Chloro-pyridin-4-yl)-thieno[3,2-d]pyrimidin-4-yl]-(R)-pyrrolidin-3-yl-amine]", "values": [{"measurement": "IC50", "setting": "[1]", "value": "1000 to 10000", "unit": "nM"}]}
{"smiles": "Fc1cnccc1-c1nc(N[C@@H]2CCNC2)c2scc(Nc3ccon3)c2n1", "note": "[compound 497, 2-(3-Fluoro-pyridin-4-yl)-N*7*-isoxazol-3-yl-N*4*- (R)-pyrrolidin-3-yl-thieno[3,2-d]pyrimidine-4,7-diamine]", "values": [{"measurement": "IC50", "setting": "[1]", "value": "10000 to 40000", "unit": "nM"}]}
{"smiles": "N[C@H](CNc1nc(-c2ccncc2)nc2sc3c(c12)CCCC3)Cc1cccc(O)c1", "note": "[compound 66, 3-[(S)-2-Amino-3-(2-pyridin-4-yl-5,6,7,8-tetrahydro-benzo[4,5]thieno[2,3-d]pyrimidin-4-ylamino)-propyl]-phenol]", "values": [{"measurement": "IC50", "setting": "[2]", "value": "100 to 1000", "unit": "nM"}]}
{"smiles": "Cn1ccc(-c2csc3c(NC[C@@H](N)Cc4ccccc4)nc(-c4ccncc4)nc23)n1", "note": "[compound 415, (S)-N*1*-[7-(1-Methyl-1H-pyrazol-3-yl)-2-pyridin-4-yl-thieno[3,2-d]pyrimidin-4-yl]-3-phenyl-propane-1,2-diamine]", "values": [{"measurement": "IC50", "setting": "[1]", "value": "1000 to 10000", "unit": "nM"}]}
{"smiles": "CC(C)(O)C#Cc1csc2c(NC[C@@H](N)Cc3ccccc3)nc(-c3ccncc3)nc12", "note": "[compound 510, 4-[4-((S)-2-Amino-3-phenyl-propylamino)-2-pyridin-4-yl-thieno[3,2-d]pyrimidin-7-yl]-2-methyl-but-3-yn-2-ol]", "values": [{"measurement": "IC50", "setting": "[1]", "value": "< 100", "unit": "nM"}]}
{"smiles": "Cc1sc2c(NC[C@@H](N)Cc3ccccc3)nc(-c3ccncc3)nc2c1C", "note": "[compound 325, (S)-N*1*-(6,7-Dimethyl-2-pyridin-4-yl-thieno[3,2-d]pyrimidin-4-yl)-3-phenyl-propane-1,2-diamine]", "values": [{"measurement": "IC50", "setting": "[1]", "value": "100 to 1000", "unit": "nM"}]}
{"smiles": "CN1CCN(C(=O)c2ccc(Nc3cc(-c4nc(N[C@@H]5CCNC5)c5sccc5n4)ccn3)cc2)CC1", "note": "[compound 613, (4-Methyl-piperazin-1-yl)-(4-{4-[4-((R)-pyrrolidin-3-ylamino)-thieno[3,2-d]pyrimidin-2-yl]-pyridin-2-ylamino}-phenyl)-methanone]", "values": [{"measurement": "IC50", "setting": "[1]", "value": "100 to 1000", "unit": "nM"}]}
{"smiles": "F[C@@H]1CNC[C@@H]1Nc1nc(-c2ccncc2)nc2ccsc12", "note": "[compound 321, ((3S,4R)-4-Fluoro-pyrrolidin-3-yl)-(2-pyridin-4-yl-thieno[3,2-d]pyrimidin-4-yl)-amine]", "values": [{"measurement": "IC50", "setting": "[1]", "value": "10000 to 40000", "unit": "nM"}]}
{"smiles": "N[C@H](CNc1nc(-c2ccncc2)nc2c(-c3ccccc3)csc12)Cc1ccccc1", "note": "[compound 417, (S)-3-Phenyl-N*1*-(7-phenyl-2-pyridin-4-yl-thieno[3,2-d]pyrimidin-4-yl)-propane-1,2-diamine]", "values": [{"measurement": "IC50", "setting": "[1]", "value": "100 to 1000", "unit": "nM"}]}
{"smiles": "Cc1cc(Nc2csc3c(N[C@@H]4CCNC4)nc(-c4ccncc4F)nc23)no1", "note": "[compound 496, 2-(3-Fluoro-pyridin-4-yl)-N*7*-(5-methyl-isoxazol-3-yl)-N*4*-(R)-pyrrolidin-3-yl-thieno[3,2-d]pyrimidine-4,7-diamine]", "values": [{"measurement": "IC50", "setting": "[1]", "value": "10000 to 40000", "unit": "nM"}]}
{"smiles": "COc1ccc(C(F)(F)F)cc1-c1c(C)sc2c(NC[C@@H](N)Cc3ccccc3)nc(-c3ccncc3)nc12", "note": "[compound 464, (S)-N*1*-[7-(2-Methoxy-5-trifluoromethyl-phenyl)-6-methyl-2-pyridin-4-yl-thieno[3,2-d]pyrimidin-4-yl]-3-phenyl-propane-1,2-diamine]", "values": [{"measurement": "IC50", "setting": "[1]", "value": "10000 to 40000", "unit": "nM"}]}
{"smiles": "N[C@@H](CNc1nc(-c2ccncc2)nc2c(-c3ccn[nH]3)csc12)Cc1ccccc1", "note": "[compound 414, (R)-3-Phenyl-N*1*-[7-(1H-pyrazol-3-yl)-2-pyridin-4-yl-thieno[3,2-d]pyrimidin-4-yl]-propane-1,2-diamine]", "values": [{"measurement": "IC50", "setting": "[1]", "value": "100 to 1000", "unit": "nM"}]}
{"smiles": "CC(C)(C)C(=O)N1CCc2c(sc3nc(-c4ccncc4)nc(NCCN)c23)C1", "note": "[compound 104, 1-[4-(2-amino-ethylamino)-2-pyridin-4-yl-5,8-dihydro-6H-pyrido[4′,3′:4,5]thieno[2,3-d]pyrimidin-7-yl]-2,2-dimethyl-propan-1-one]", "values": [{"measurement": "IC50", "setting": "[2]", "value": "10000 to 40000", "unit": "nM"}]}
{"smiles": "NCCNc1nc(-c2ccncc2)nc2sc3c(c12)CCCC3", "note": "[compound 12, N*1*-(2-pyridin-4-yl-5,6,7,8-tetrahydro-benzo[4,5]thieno[2,3-d]pyrimidin-4-yl)-ethane-1,2-diamine]", "values": [{"measurement": "IC50", "setting": "[2]", "value": "100 to 1000", "unit": "nM"}]}
{"smiles": "c1ccc(-c2ccc(Nc3cc(-c4nc(N[C@@H]5CCNC5)c5sccc5n4)ccn3)nc2)cc1", "note": "[compound 601, {2-[2-(5-Phenyl-pyridin-2-ylamino)-pyridin-4-yl]-thieno[3,2-d]pyrimidin-4-yl}-(R)-pyrrolidin-3-yl-amine]", "values": [{"measurement": "IC50", "setting": "[1]", "value": "100 to 1000", "unit": "nM"}]}
{"smiles": "N[C@@H](CNc1nc(-c2ccncc2)nc2sc3c(c12)CCOC3)Cc1ccccc1", "note": "[compound 83, (R)-3-Phenyl-N*1*-(2-pyridin-4-yl-5,8-dihydro-6H-pyrano[4′,3′:4,5]thieno[2,3-d]pyrimidin-4-yl)-propane-1,2-diamine]", "values": [{"measurement": "IC50", "setting": "[2]", "value": "10000 to 40000", "unit": "nM"}]}
{"smiles": "c1cc(-c2nc(N[C@@H]3CCNC3)c3sccc3n2)cc(Sc2cc(-c3nc(N[C@@H]4CCNC4)c4sccc4n3)ccn2)n1", "note": "[compound 632]", "values": [{"measurement": "IC50", "setting": "[1]", "value": "1000 to 10000", "unit": "nM"}]}
{"smiles": "N#Cc1cccc(Nc2cc(-c3nc(N[C@@H]4CCNC4)c4sccc4n3)ccn2)c1", "note": "[compound 606, 3-{4-[4-((R)-Pyrrolidin-3-ylamino)-thieno[3,2-d]pyrimidin-2-yl]-pyridin-2-ylamino}-benzonitrile]", "values": [{"measurement": "IC50", "setting": "[1]", "value": "1000 to 10000", "unit": "nM"}]}
{"smiles": "CC(C)(C)c1sc2c(NC[C@@H](N)Cc3ccccc3)nc(-c3ccncc3)nc2c1-c1ccccc1", "note": "[compound 451, (S)-N*1*-(6-tert-Butyl-7-phenyl-2-pyridin-4-yl-thieno[3,2-d]pyrimidin-4-yl)-3-phenyl-propane-1,2-diamine]", "values": [{"measurement": "IC50", "setting": "[1]", "value": "10000 to 40000", "unit": "nM"}]}
{"smiles": "N[C@@H](CNc1nc(-c2ccncc2)nc2sc3c(c12)CCCC3)Cc1csc2ccccc12", "note": "[compound 61, (R)-3-Benzo[b]thiophen-3-yl-N*1*-(2-pyridin-4-yl-5,6,7,8-tetrahydro-benzo[4,5]thieno[2,3-d]pyrimidin-4-yl)-propane-1,2-diamine]", "values": [{"measurement": "IC50", "setting": "[2]", "value": "1000 to 10000", "unit": "nM"}]}
{"smiles": "CCC[C@@H](C)[C@H](O)C#Cc1csc2c(NC[C@@H](N)Cc3ccccc3)nc(-c3ccncc3)nc12", "note": "[compound 522, (S)-1-[4-((S)-2-Amino-3-phenyl-propylamino)-2-pyridin-4-yl-thieno[3,2-d]pyrimidin-7-yl]-4-methyl-hept-1-yn-3-ol]", "values": [{"measurement": "IC50", "setting": "[1]", "value": "1000 to 10000", "unit": "nM"}]}
{"smiles": "N[C@H](CNc1nc(-c2ccncc2)nc2c(-c3cc(C4CC4)[nH]n3)csc12)Cc1ccccc1", "note": "[compound 418, (S)-N*1*-[7-(5-Cyclopropyl-1H-pyrazol-3-yl)-2-pyridin-4-yl-thieno[3,2-d]pyrimidin-4-yl]-3-phenyl-propane-1,2-diamine]", "values": [{"measurement": "IC50", "setting": "[1]", "value": "100 to 1000", "unit": "nM"}]}
{"smiles": "N[C@H](CNc1nc(-c2ccncc2)nc2c(-c3ccon3)csc12)Cc1ccccc1", "note": "[compound 572, (S)-N*1*-(7-Isoxazol-3-yl-2-pyridin-4-yl-thieno[3,2-d]pyrimidin-4-yl)-3-phenyl-propane-1,2-diamine]", "values": [{"measurement": "IC50", "setting": "[1]", "value": "100 to 1000", "unit": "nM"}]}
{"smiles": "C[C@H](O)C#Cc1csc2c(N[C@@H]3CCNC3)nc(-c3ccncc3)nc12", "note": "[compound 517, (S)-4-[2-Pyridin-4-yl-4-((R)-pyrrolidin-3-ylamino)-thieno[3,2-d]pyrimidin-7-yl]-but-3-yn-2-ol]", "values": [{"measurement": "IC50", "setting": "[1]", "value": "< 100", "unit": "nM"}]}
